Measurements published in patent US12390409B2 (NeueRe, LLC, priority 2018, dated 2025).

Assays:
[1] = system: skin; settings: other case reports, positive patch test; cited from earlier work
[2] = system: human (adult male) skin; assay: TEWL recovery after skin barrier disruption by 99.9% DMSO, upper thigh; type: in vivo; settings: 2.0 mM ambroxol in 99.9% DMSO
From the text: Dimethyl sulfoxide (DMSO) is a well-known skin permeability enhancer that is thought to act by disrupting ceramide-containing lipid bilayers of the stratum corneum and thereby compromising the permeability barrier of the skin (Agner and Serup, Clin. Expt. Dermatology 14:214 [1989]; Notman et al Biophysical Journal 93:2056 [2007]). Among its many protective functions, this lipid barrier regulates transepidermal water loss (TEWL) and is vital for the prevention of skin dryness in mammals. Thus, it is accepted by researchers in the field, that measurements of TEWL can be used to directly assay the integrity of the skin permeability barrier (Fluhr et al Experimental Dermatology 15:483 [2006]).
All experiments were conducted in a narrow range of relative humidity (30-40%) and at stable room temperatures of 18-22° C.
Transepidermal water loss (TEWL) measurements, in units of g/m^2-h, were taken at various time points after applying the solutions (at t=0) to the skin sites. TEWL values were assessed using a wireless closed-chamber system (VapoMeter, Delphin Technologies Ltd., Kuopio, Finland) that automatically calculates water evaporation rates over a small area (˜1.3 cm^2); each measurement took about 10 s (Fluhr et al Experimental Dermatology 15:483 [2006]). […] All time points were measured in duplicate or triplicate. […] The improvement in TEWL, a difference of 4-6 g/m^2-h between the two curves, then maintains itself over the remaining course of the experiment. […] Shown for each point are the error bars (standard deviation of duplicate or triplicate measurements); for some points the error bars are less visible because they were smaller than the diameter of the symbol representing that point.]

[3] = system: skin of volar forearm; assay: Dose-ranging study of ambroxol on TEWL, 99.9% DMSO, volar forearm; type: in vivo, human; settings: ambroxol concentrations much lower than 2.0 mM (20 micromolar to 2.0 mM tested) in 99.9% DMSO, 10 microliter, 1 hr and 10 hr post-application
From the text: Apart from these additional concentrations, conditions and the formulation (99.9% DMSO) were essentially the same as those described in Example 1, except in this experiment 10 microliter aliquots were spread and the skin region tested was on the volar forearm.
The data in FIG. 3 are presented as histograms, with only start points (at 1 hr post-application) and end-points (at 10 hr post application) shown. Two things are notable about this experiment. […] This may reflect the relative delicacy of volar forearm skin compared to skin of the upper thigh, such that the same treatment may be more or less harsh depending on the skin area treated. […] [Symbols: Open rectangles, skin TEWL measured at 1 hr post-application; hatched rectangles, skin TEWL measured at 10 hr post-application; dashed line, average TEWL value (7.8±1.1 g/m^2-hr) of untreated skin from areas adjacent to the treatment sites. All measurements were taken in quadruplicate (n=4) or quintuplicate (n=5). Shown for each value are the error bars (standard deviation of quadruplicate or quintuplicate measurements.]

[4] = system: human skin; assay: TEWL recovery after disruption by 60:40 DMSO:water formulation, upper thigh; type: in vivo; settings: 2.0 mM ambroxol in 60:40 (v/v) DMSO:water
Protocol: 60% DMSO has been reported to be the minimum concentration of DMSO needed to disrupt ceramide-containing lipid bilayers in skin (Notman et al Biophysical Journal 93:2056 [2007]).
All time points were measured in duplicate or triplicate.
Also like in the experiment shown in FIG. 1, there is an enduring improvement of approximately 5 g/m^2-h in the rate of water loss of the ambroxol-treated skin relative to skin treated with the DMSO:water formulation alone. […] Shown for each point are the error bars (standard deviation of duplicate or triplicate measurements); for some points the error bars are less visible because they were smaller than the diameter of the symbol representing that point.]

In the case of `Nc1c(Br)cc(Br)cc1CN[C@H]1CC[C@H](O)CC1` [ambroxol, trans-4-(2-amino-3,5-dibromobenzylamino) cyclohexanol], the “adverse skin reaction in case reports” value [1] is listed as “systemic contact dermatitis”, the “improvement in TEWL, difference between ambroxol and control (DMSO only) curves” value ([2]; 20 microliter on about 2 cm^2 upper thigh skin, maintained after the burst over the remaining course) is listed as 4-6 g/m^2-h and the “period of the rapid burst of skin barrier healing” value ([2]; upper thigh) is listed as “approximately 30 minutes”. For the same molecule, the “time post-application of sudden drop in TEWL” value ([2]; upper thigh) was “about 60 minutes”, the “ameliorating the increase in TEWL caused by the DMSO insult” value [3] was “positive results” and the “time of the burst of TEWL improvement” value [4] was “in the first hour post-application”.
